Measured values: patent publication US8143068B2, “Oxidation resistant indicator molecules” (Sensors for Medicine and Science, Inc., priority 2006, dated 2012)
Like-named read-outs stand apart in the source and are kept apart here.

Tests used:
[1] = Modulation of fluorescence by varying concentrations of glucose (Example 1, FIG. 1)
Experimental: The modulation of the fluorescence of various molecules (depicted in FIG. 5) by varying concentrations of glucose was determined. […] In a further experiment, the unsubstituted control and two compounds of the present invention (4-trifluoromethyl and 3,4-difluoro) were subjected to oxidation treatment with 1 mM hydrogen peroxide, and the loss of fluorescence intensity was measured.

[2] = Stability of indicator gels towards oxidant: 1 mM hydrogen peroxide in PBS at 37° C.; assay type: physicochemical; conditions: indicator gel
Experimental: Several compounds of the present invention were each copolymerized with hydroxyethyl methacrylate (HEMA), acrylic acid and ethylene glycol dimethacrylate (EGDMA) to form water insoluble polymer gels, as in Example 3. Their stability towards oxidant was assessed by subjecting the gels to 1 mM hydrogen peroxide in PBS at 37° C. […] In a further experiment, the fluorescent change (% modulation) from 0 to 20 mM glucose of various indicator gels was measured and the results are shown in FIG. 8.

[3] = Fluorescence and glucose response of indicator gels (Table 1); assay type: binding; conditions: indicator gel; for Kd: 37° C.
[4] = Long term exposure of indicator gels to 10 μM hydrogen peroxide and 4 mM glucose/PBS at 37° C., loss of fluorescence intensity; assay type: physicochemical; conditions: indicator gel
Experimental: Several gels (produced as in Example 3) containing compounds of the present invention (4-trifluoromethyl, 3,4-difluoro and 4-fluoro) and a control (unsubstituted) were subjected to long term exposure to 10 μM hydrogen peroxide and 4 mM glucose/PBS at 37° C., and the loss of fluorescence intensity was measured.
Two compounds according to the present invention (4-trifluoromethyl and 3,4-difluoro) and the unsubstituted control were each copolymerized with hydroxyethyl methacrylate (HEMA) and acrylic acid, and crosslinked with ethylene glycol dimethacrylate (EGDMA) to form a water insoluble polymer graft, which was then implanted into a rat to be subjected to in vivo oxidation for 22 or 43 days.

[5] = Stability of indicator gels in 1 mM hydrogen peroxide in the presence of 4 mM glucose in PBS at 37° C.; assay type: physicochemical; conditions: indicator gel
Experimental: Several compounds of the present invention were each copolymerized with hydroxyethyl methacrylate (HEMA), acrylic acid and ethylene glycol dimethacrylate (EGDMA) to form water insoluble polymer gels, as in Example 3. Their stability towards oxidant was assessed by subjecting the gels to 1 mM hydrogen peroxide in PBS at 37° C. In a further experiment, two of the indicator gels (the 4-trifluoromethyl and 4-trifluoromethylsulfone gels) were subjected to 1 mM hydrogen peroxide in the presence of 4 mM glucose in PBS at 37° C. In a further experiment, the fluorescent change (% modulation) from 0 to 20 mM glucose of various indicator gels was measured and the results are shown in FIG. 8.

[6] = aqueous association with glucose; cited from earlier work

## 9-[N-[2-(4,4,5,5,-tetramethyl-1,3,2-dioxaborolano)-3-methylbenzyl]-N-[3-(methacrylamido)propylamino]methyl]-10-[N-[2-(4,4,5,5,-tetramethyl-1,3,2-dioxaborolano)-3-methylbenzyl]-N-[2-(carboxyethyl)amino]methyl]anthracene [Indicator 2-Methyl]
[1]
  modulation of the fluorescence by glucose: did not modulate well

## 9-[N-[6-(4,4,5,5,-tetramethyl-1,3,2-dioxaborolano)-2,4-(dichloro)benzyl]-N-[3-(methacrylamido)propylamino]methyl]-10-[N-[6-(4,4,5,5,-tetramethyl-1,3,2-dioxaborolano)-2,4-(dichloro)benzyl]-N-[2-(carboxyethyl)amino]-methyl]anthracene sodium salt [3,5-Dichloro]
[2]
  t 1/2: 22 min

## C=C(C)C(=O)NCCCN(Cc1ccc(F)cc1B1OC(C)(C)C(C)(C)O1)Cc1c2ccccc2c(CN(CCC(=O)[O-])Cc2ccc(F)cc2B2OC(C)(C)C(C)(C)O2)c2ccccc12.[Na+] [Indicator 5-Fluoro, 9-[N-[2-(4,4,5,5,-tetramethyl-1,3,2-dioxaborolano)-4-fluorobenzyl]-N-[3-(methacrylamido)propylamino]methyl]-10-[N-[2-(4,4,5,5,-tetramethyl-1,3,2-dioxaborolano)-4-fluorobenzyl]-N-[2-(carboxyethyl)amino]methyl]anthracene sodium salt]
[2]
  t 1/2: 6 min

## 9-[N-[6-(4,4,5,5,-tetramethyl-1,3,2-dioxaborolano)-2,3-difluorobenzyl]-N-[3-(methacrylamido)propylamino]methyl]-10-[N-[6-(4,4,5,5,-tetramethyl-1,3,2-dioxaborolano)-2,3-difluorobenzyl]-N-[2-(carboxyethyl)amino]methyl]anthracene sodium salt [3,4-Difluoro]
[3]
  AVERAGE % MODULATION (0 to 20 mM glucose): 137%
  Kd: 30.9 mM
[4]
  HALF LIFE (days) at 37° C. in 4 mM glucose and 10 μM H2O2: 33 days
[2]
  t 1/2: 13 min

## 9-[N-[6-(4,4,5,5,-tetramethyl-1,3,2-dioxaborolano)-2,3-dichlorobenzyl]-N-[3-(methacrylamido)propylamino]methyl]-10-[N-[6-(4,4,5,5,-tetramethyl-1,3,2-dioxaborolano)-2,3-dichlorobenzyl]-N-[2-(carboxyethyl)amino]methyl]anthracene sodium salt [3,4-Dichloro]
[2]
  t 1/2: 32 min

## 9-[N-[6-(4,4,5,5,-tetramethyl-1,3,2-dioxaborolano)-3-cyanobenzyl]-N-[3-(methacrylamido)propylamino]methyl]-10-[N-[6-(4,4,5,5,-tetramethyl-1,3,2-dioxaborolano)-3-cyanobenzyl]-N-[2-(carboxyethyl)amino]methyl]anthracene sodium salt [Indicator 4-Cyano]
[2]
  t 1/2: 18 min

## 9-[N-[6-(4,4,5,5,-tetramethyl-1,3,2-dioxaborolano)-2,4-bis(trifluoromethyl)benzyl]-N-[3-(methacrylamido)propylamino]methyl]-10-[N-[6-(4,4,5,5,-tetramethyl-1,3,2-dioxaborolano)-2,4-bis(trifluoromethyl)benzyl]-N-[2-(carboxyethyl)amino]-methyl]anthracene sodium salt [3,5-Bis(trifluoromethyl)]
[2]
  t 1/2: 495 min

## C=C(C)C(=O)NCCCN(Cc1cc([N+](=O)[O-])ccc1B1OC(C)(C)C(C)(C)O1)Cc1c2ccccc2c(CN(CCC(=O)[O-])Cc2cc([N+](=O)[O-])ccc2B2OC(C)(C)C(C)(C)O2)c2ccccc12.[Na+] [Indicator 4-Nitro, 9-[N-[6-(4,4,5,5,-tetramethyl-1,3,2-dioxaborolano)-3-nitrobenzyl]-N-[3-(methacrylamido)propylamino]methyl]-10-[N-[6-(4,4,5,5,-tetramethyl-1,3,2-dioxaborolano)-3-nitrobenzyl]-N-[2-(carboxyethyl)amino]methyl]anthracene sodium salt]
[1]
  modulation of the fluorescence by glucose: did not modulate well

## 9-[N-[6-(4,4,5,5,-tetramethyl-1,3,2-dioxaborolano)-3-(trifluoromethyl)benzyl]-N-[3-(methacrylamido)propylamino]methyl]-10-[N-[6-(4,4,5,5,-tetramethyl-1,3,2-dioxaborolano)-3-(trifluoromethyl)benzyl]-N-[2-(carboxyethyl)amino]methyl]anthracene sodium salt [4-Trifluoromethyl]
[3]
  AVERAGE % MODULATION (0 to 20 mM glucose): 191%
  Kd: 12.2 mM
[4]
  HALF LIFE (days) at 37° C. in 4 mM glucose and 10 μM H2O2: 26 days
[2]
  t 1/2: 17 min
[5]
  t 1/2 (minutes), in 4 mM Glucose Solution: 30 min

## OB(O)c1ccccc1 [phenylboronic acid]
[6]
  Kd: 9.1 mM

## 9-[N-[2-(4,4,5,5,-tetramethyl-1,3,2-dioxaborolano)-4-(trifluoromethyl)benzyl]-N-[3-(methacrylamido)propylamino]methyl]-10-[N-[2-(4,4,5,5-tetra-methyl-1,3,2-dioxaborolano)-4-(trifluoromethyl)benzyl]-N-[2-(carboxyethyl)amino]methyl]-anthracene sodium salt [5-Trifluoromethyl]
[2]
  t 1/2: 24 min

## 9-[N-[6-(4,4,5,5,-tetramethyl-1,3,2-dioxaborolano)-3-fluorobenzyl]-N-[3-(methacrylamido)propylamino]methyl]-10-[N-[6-(4,4,5,5,-tetramethyl-1,3,2-dioxaborolano)-3-fluorobenzyl]-N-[2-(carboxyethyl)amino]methyl]anthracene sodium salt [Indicator 4-Fluoro]
[2]
  t 1/2: 13 min

## C=C(C)C(=O)NCCCN(Cc1cc(OC(F)(F)F)ccc1B1OC(C)(C)C(C)(C)O1)Cc1c2ccccc2c(CN(CCC(=O)[O-])Cc2cc(OC(F)(F)F)ccc2B2OC(C)(C)C(C)(C)O2)c2ccccc12.[Na+] [4-Trifluoromethoxy, 9-[N-[6-(4,4,5,5,-tetramethyl-1,3,2-dioxaborolano)-3-(trifluoromethoxy)benzyl]-N-[3-(methacrylamido)propylamino]methyl]-10-[N-[6-(4,4,5,5-tetra-methyl-1,3,2-dioxaborolano)-3-(trifluoromethoxy)benzyl]-N-[2-(carboxyethyl)amino]methyl]-anthracene sodium salt]
[2]
  t 1/2: 24 min
